Test results from patent US7683176B2, “Triazolyl pyridyl benzenesulfonamides” (ChemoCentryx, Inc., priority 2006, dated 2010).
pIC50: −log10 of the molar value.

Biological target: T1, CCR2 (Homo sapiens, UniProt P41597)
T1 construct: chemokine expressing cells (such as THP-1 cells for CCR2 assay or MOLT-4 cells for CCR9 assay); host or cells: THP-1
T1 sequence (P41597 1-360 isoform P41597-2): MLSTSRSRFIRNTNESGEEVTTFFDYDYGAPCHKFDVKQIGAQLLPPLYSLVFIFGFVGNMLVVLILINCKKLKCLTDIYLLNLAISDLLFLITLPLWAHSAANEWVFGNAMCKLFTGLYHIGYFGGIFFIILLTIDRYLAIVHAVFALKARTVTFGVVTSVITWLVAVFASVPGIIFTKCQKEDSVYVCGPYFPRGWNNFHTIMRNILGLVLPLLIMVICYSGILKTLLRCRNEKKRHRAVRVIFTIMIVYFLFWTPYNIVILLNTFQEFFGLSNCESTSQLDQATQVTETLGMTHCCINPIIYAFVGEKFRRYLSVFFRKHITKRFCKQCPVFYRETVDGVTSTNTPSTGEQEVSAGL
Experiment: CCR2 activity in one of the chemotaxis, binding or calcium mobilization assays
Assay type: cell-based
Settings: binding or calcium mobilization assays (THP-1 cells, MCP-1)
Description: THP-1 cells and MOLT-4 cells were obtained from the American Type Culture Collection (Manassas, Va.) and cultured in RPMI tissue culture medium supplemented with 10% fetal calf serum (FCS) in a humidified 5% CO2 incubator at 37° C. Recombinant human chemokine proteins MCP-1 and TECK were obtained from R&D Systems (Minneapolis, Minn.). ^125I-labeled MCP-1 protein was obtained from Amersham (Piscataway, N.J.). ChemoTX® chemotaxis microchambers were purchased from Neuro Probe (Gaithersburg, Md.). CyQUANT® cell proliferation kits were purchased from Molecular Probes (Eugene, Oreg.). Calcium indicator dye Fluo-4 AM was purchased from Molecular Devices (Mountain View, Calif.).
Conventional migration assay was used to determine the efficacy of potential receptor antagonists in blocking migration mediated through chemokines (such as CCR2 or CCR9). This assay was routinely performed using the ChemoTX® microchamber system with a 5-μm pore-sized polycarbonate membrane. To begin such an assay, chemokine expressing cells (such as THP-1 cells for CCR2 assay or MOLT-4 cells for CCR9 assay) were harvested by centrifugation of cell suspension at 1000 RPM on a GS-6R Beckman centrifuge. The cell pellet was resuspended in chemotaxis buffer (HBSS with 0.1% BSA) at 10×10^6 cells/mL for CCR2 assay (5×10^6 cells/mL for CCR9 assay). Test compounds at desired concentrations were prepared from 10 mM stock solutions by serial dilutions in chemotaxis buffer. An equal volume of cells and compounds were mixed and incubated at room temperature for 15 minutes. Afterwards, 20 μL of the mixture was transferred onto the porous membrane of a migration microchamber, with 29 μL of chemokine ligand (0.1 nM chemokine MCP-1 protein for CCR2 assay or […] chemokine TECK protein for CCR9 assay) placed at the lower chamber. Following an incubation at 37° C. (90-minute for CCR2; 150-minute for CCR9), during which cells migrated […] the chemokine gradient, the assay was terminated by removing the cell drops from atop the filter. To quantify cells migrated across the membrane, 5 μL of 7× CyQUANT® solution was added to each well in the lower chamber, and the fluorescence signal measured on a Spectrafluor Plus fluorescence plate reader (TECAN, Durham, N.C.). The degree of inhibition was determined by comparing migration signals between compound-treated and untreated cells. IC50 calculation was further performed by non-linear squares regression analysis using Graphpad Prism (Graphpad Software, San Diego, Calif.).
Calcium flux assay measures an increase in intracellular calcium following ligand-induced receptor activation. In the screen of chemokine antagonists, it was used as a secondary assay carried out on a FLIPR® machine (Molecular Devices, Mountain View, Calif.). To begin an assay, chemokine expressing cells (such as THP-1 cells for CCR2 assay or MOLT-4 cells for CCR9 assay) were harvested by centrifugation of cell suspension, and resuspended to 1.5×10^6 cells/mL in HBSS (with 1% fetal calf serum). Cells were then labeled with a calcium indicator dye Fluo-4 AM for 45 minutes at 37° C. with gentle shaking. Following incubation, cells were pelletted, washed once with HBSS and resuspended in the same buffer at a density of 1.6×10^6 cells/mL. One hundred microliters of labeled cells were mixed with 10 μL of test compound at the appropriate concentrations on an assay plate. Chemokine protein (MCP-1 at a final concentration of 0.1 nM for CCR2 assay or TECK at a final concentration of 25 nM for CCR9 assay) to activate the receptor. The degree of inhibition was determined by comparing calcium signals between compound-treated and untreated cells. IC50 calculations were further performed by non-linear squares regression analysis using Graphpad Prism (Graphpad Software, San Diego, Calif.).
Ligand binding assay was used to determine the ability of potential CCR2 antagonists to block the interaction between CCR2 and its ligand MCP-1. […]

Compound: CCOC(=O)c1nnc(-c2ncc(Cl)cc2NS(=O)(=O)c2ccc(Cl)c(C(F)(F)F)c2)n1C(C)C
- pIC50: > 6.00

Compound: CC(C)n1c(C(N)=O)nnc1-c1ncc(Cl)cc1NS(=O)(=O)c1ccc(Cl)c(C(F)(F)F)c1
- pIC50: > 6.00

Compound: CC(C)n1c(C(=O)N(C)C)nnc1-c1ncc(Cl)cc1NS(=O)(=O)c1ccc(Cl)c(C(F)(F)F)c1
- pIC50: > 6.00

Compound: C[C@@H](CO)n1cnnc1-c1ncc(Cl)cc1NS(=O)(=O)c1ccc(Cl)c(C(F)(F)F)c1
- pIC50: > 6.00

Compound: CC(C)n1c(Br)nnc1-c1ncc(Cl)cc1NS(=O)(=O)c1ccc(Cl)c(C(F)(F)F)c1
- pIC50: > 6.00

Compound: COc1ccc(F)cc1-n1cnnc1-c1ncc(Cl)cc1NS(=O)(=O)c1ccc(Cl)c(C(F)(F)F)c1
- pIC50: > 6.00

Compound: Cc1cnc(-c2nncn2-c2cc[nH]n2)c(NS(=O)(=O)c2ccc(Cl)c(C(F)(F)F)c2)c1
- pIC50: > 6.00

Compound: Cc1ccccc1-n1cnnc1-c1ncc(Cl)cc1NS(=O)(=O)c1ccc(Cl)c(C(F)(F)F)c1
- pIC50: > 6.00

Compound: O=S(=O)(Nc1cc(Cl)cnc1-c1nncn1-c1n[nH]cc1Br)c1ccc(Cl)c(C(F)(F)F)c1
- pIC50: > 6.00

Compound: O=S(=O)(Nc1cc(Cl)cnc1-c1nncn1-c1cn[nH]c1)c1ccc(Cl)c(C(F)(F)F)c1
- pIC50: > 6.00

Compound: Cc1n[nH]cc1-n1cnnc1-c1ncc(Cl)cc1NS(=O)(=O)c1ccc(Cl)c(C(F)(F)F)c1
- pIC50: > 6.00

Compound: CC(C)c1nnc(-c2ncc(Cl)cc2NS(=O)(=O)c2ccc(Cl)c(C(F)(F)F)c2)n1-c1cc[nH]n1
- pIC50: > 6.00

Compound: CCOC(=O)c1nnc(-c2ncc(Cl)cc2NS(=O)(=O)c2ccc(Cl)c(C(F)(F)F)c2)n1-c1ccon1
- pIC50: > 6.00

Compound: O=S(=O)(Nc1cc(Cl)cnc1-c1nnc(C(F)(F)F)n1-c1cc[nH]n1)c1ccc(Cl)c(C(F)(F)F)c1
- pIC50: > 6.00

Compound: Cc1c[nH]nc1-n1cnnc1-c1ncc(Cl)cc1NS(=O)(=O)c1ccc(Cl)c(C(F)(F)F)c1
- pIC50: > 6.00

Compound: NC(=O)c1nnc(-c2ncc(Cl)cc2NS(=O)(=O)c2ccc(Cl)c(C(F)(F)F)c2)n1-c1ccon1
- pIC50: > 6.00

Compound: CN(C)C(=O)c1nnc(-c2ncc(Cl)cc2NS(=O)(=O)c2ccc(Cl)c(C(F)(F)F)c2)n1-c1ccon1
- pIC50: > 6.00

Compound: Cc1nnc(-c2ncc(Cl)cc2NS(=O)(=O)c2ccc(Cl)c(C(F)(F)F)c2)n1-c1n[nH]cc1Br
- pIC50: > 6.00

Compound: COCc1nnc(-c2ncc(Cl)cc2NS(=O)(=O)c2ccc(Cl)c(C(F)(F)F)c2)n1-c1cc[nH]n1
- pIC50: > 6.00

Compound: COCc1nnc(-c2ncc(Cl)cc2NS(=O)(=O)c2ccc(Cl)c(C(F)(F)F)c2)n1-c1ccon1
- pIC50: > 6.00

Compound: CC(C)n1c(N)nnc1-c1ncc(Cl)cc1NS(=O)(=O)c1ccc(Cl)c(C(F)(F)F)c1
- pIC50: > 6.00

Compound: O=S(=O)(Nc1cc(Cl)cnc1-c1nnc(C2CC2)n1-c1cc[nH]n1)c1ccc(Cl)c(C(F)(F)F)c1
- pIC50: > 6.00

Compound: CCNC(=O)c1nnc(-c2ncc(Cl)cc2NS(=O)(=O)c2ccc(Cl)c(C(F)(F)F)c2)n1-c1ccon1
- pIC50: > 6.00

Compound: O=C(c1nnc(-c2ncc(Cl)cc2NS(=O)(=O)c2ccc(Cl)c(C(F)(F)F)c2)n1-c1ccon1)N1CCCC1
- pIC50: > 6.00

Compound: CC(C)NC(=O)c1nnc(-c2ncc(Cl)cc2NS(=O)(=O)c2ccc(Cl)c(C(F)(F)F)c2)n1-c1ccon1
- pIC50: > 6.00

Compound: O=S(=O)(Nc1cc(Cl)cnc1-c1nncn1-c1cc[nH]n1)c1ccc(Cl)c(Cl)c1
- pIC50: > 6.00

Compound: O=S(=O)(Nc1cc(Cl)cnc1-c1nncn1-c1ccon1)c1ccc(Cl)c(Cl)c1
- pIC50: > 6.00

Compound: CC(C)(C)c1nnc(-c2ncc(Cl)cc2NS(=O)(=O)c2ccc(Cl)c(C(F)(F)F)c2)n1-c1cc[nH]n1
- pIC50: > 6.00

Compound: O=S(=O)(Nc1cc(Cl)cnc1-c1nnc(Br)n1-c1ccon1)c1ccc(Cl)c(C(F)(F)F)c1
- pIC50: > 6.00

Compound: O=S(=O)(Nc1cc(Cl)cnc1-c1nncn1-c1n[nH]cc1Br)c1ccc(Cl)c(Cl)c1
- pIC50: > 6.00

Compound: O=S(=O)(Nc1cc(Cl)cnc1-c1nnc(Br)n1-c1n[nH]cc1Br)c1ccc(Cl)c(Cl)c1
- pIC50: > 6.00

Compound: CCN(C)C(=O)c1nnc(-c2ncc(Cl)cc2NS(=O)(=O)c2ccc(Cl)c(C(F)(F)F)c2)n1-c1ccon1
- pIC50: > 6.00

Compound: Cc1cnc(-c2nnc(C(N)=O)n2-c2ccon2)c(NS(=O)(=O)c2ccc(Cl)c(C(F)(F)F)c2)c1
- pIC50: > 6.00

Compound: O=S(=O)(Nc1cc(Br)cnc1-c1nncn1-c1cc[nH]n1)c1ccc(Cl)c(C(F)(F)F)c1
- pIC50: > 6.00

Compound: O=S(=O)(Nc1cc(Br)cnc1-c1nncn1-c1ccon1)c1ccc(Cl)c(C(F)(F)F)c1
- pIC50: > 6.00

Compound: NC(=O)c1nnc(-c2ncc(Cl)cc2NS(=O)(=O)c2ccc(Cl)c(Cl)c2)n1-c1ccon1
- pIC50: > 6.00

Compound: Cn1nccc1-n1cnnc1-c1ncc(Cl)cc1NS(=O)(=O)c1ccc(Cl)c(C(F)(F)F)c1
- pIC50: > 6.00

Compound: O=S(=O)(Nc1cc(Cl)cnc1-c1nncn1C1CCNC1)c1ccc(Cl)c(C(F)(F)F)c1 (stereo not drawn)
- pIC50: > 6.00

Compound: CCCn1cnnc1-c1ncc(Cl)cc1NS(=O)(=O)c1ccc(Cl)c(C(F)(F)F)c1
- pIC50: > 6.00

Compound: CO[C@H]1CNC[C@@H]1n1cnnc1-c1ncc(Cl)cc1NS(=O)(=O)c1ccc(Cl)c(C(F)(F)F)c1
- pIC50: > 6.00

Compound: O=S(=O)(Nc1cc(Cl)cnc1-c1nncn1C1CCNCC1)c1ccc(Cl)c(C(F)(F)F)c1
- pIC50: > 6.00

Compound: CC(C)n1c(Cl)nnc1-c1ncc(Cl)cc1NS(=O)(=O)c1ccc(Cl)c(C(F)(F)F)c1
- pIC50: > 6.00

Compound: CC(CCO)n1cnnc1-c1ncc(Cl)cc1NS(=O)(=O)c1ccc(Cl)c(C(F)(F)F)c1 (stereo not drawn)
- pIC50: > 6.00

Compound: CC(CN(C)C)n1cnnc1-c1ncc(Cl)cc1NS(=O)(=O)c1ccc(Cl)c(C(F)(F)F)c1 (stereo not drawn)
- pIC50: > 6.00

Compound: O=S(=O)(Nc1cc(Cl)cnc1-c1nnc(C(F)(F)F)n1-c1ccccc1)c1ccc(Cl)c(C(F)(F)F)c1
- pIC50: > 6.00

Compound: CC(C)n1c(CO)nnc1-c1ncc(Cl)cc1NS(=O)(=O)c1ccc(Cl)c(C(F)(F)F)c1
- pIC50: > 6.00

Compound: O=S(=O)(Nc1cc(Cl)cnc1-c1nnc(CO)n1-c1ccon1)c1ccc(Cl)c(C(F)(F)F)c1
- pIC50: > 6.00

Compound: O=C(c1nnc(-c2ncc(Cl)cc2NS(=O)(=O)c2ccc(Cl)c(C(F)(F)F)c2)n1-c1ccon1)N1CCOCC1
- pIC50: > 6.00

Compound: CC(C)n1c(CN(C)C)nnc1-c1ncc(Cl)cc1NS(=O)(=O)c1ccc(Cl)c(C(F)(F)F)c1
- pIC50: > 6.00

Compound: Cc1ccc(S(=O)(=O)Nc2cc(Cl)cnc2-c2nnc(C(N)=O)n2-c2ccon2)cc1C(F)(F)F
- pIC50: > 6.00

Compound: Cc1cnc(-c2nnc(C(N)=O)n2-c2ccccc2)c(NS(=O)(=O)c2ccc(Cl)c(C(F)(F)F)c2)c1
- pIC50: > 6.00
